Reference: the supplement of paper PMC10307832

What was measured:
Test in all cases: relative viability (nuclei count vs DMSO), 5 days (fraction); higher = more cells survive
[1] = compound: COc1cc2nc(N3CCCN(C)CC3)nc(NC3CCN(Cc4ccccc4)CC3)c2cc1OC + O=C(CCCCCCC(=O)Nc1ccccc1)NO [Vorinostat] (partner 1 µM)
Procedure, shortened: (§1)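 The day after seeding in 1536-well plates, lung cancer cell lines were treated by pin tool with a single drug, or with a fixed anchor-drug dose together with five library-drug doses (not always all listed) in √10 steps. After 5 days, a combined fix-and-stain solution (final 0.05% Triton X-100, 1% formaldehyde, 1 ug/ml Hoechst) was added. Nuclei counted on 4× images gave relative viability as treated counts over vehicle counts, reported as the median of duplicate plates.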

[2] = compound: COc1cc2nc(N3CCCN(C)CC3)nc(NC3CCN(Cc4ccccc4)CC3)c2cc1OC + COc1cc2c(Oc3ccc(NC(=O)C4(C(=O)Nc5ccc(F)cc5)CC4)cc3F)ccnc2cc1OCCCN1CCOCC1 [Foretinib] (partner 0.25 µM)
Procedure, shortened: as §1

[3] = compound: COc1cc2nc(N3CCCN(C)CC3)nc(NC3CCN(Cc4ccccc4)CC3)c2cc1OC + Nc1ncn([C@H]2C[C@H](O)[C@@H](CO)O2)c(=O)n1 [Decitabine] (partner 2 µM)
Procedure, shortened: as §1

AZD6482 + Navitoclax = compound: Cc1cc([C@@H](C)Nc2ccccc2C(=O)O)c2nc(N3CCOCC3)cc(=O)n2c1 [AZD6482] + CC1(C)CCC(c2ccc(Cl)cc2)=C(CN2CCN(c3ccc(C(=O)NS(=O)(=O)c4ccc(N[C@H](CCN5CCOCC5)CSc5ccccc5)c(S(=O)(=O)C(F)(F)F)c4)cc3)CC2)C1 [Navitoclax] (partner 0.5 µM)
Procedure, shortened: as §1

Cell Line	relative viability ([1]; first compound 0.2 µM)	relative viability ([1]; first compound 0.6325 µM)	relative viability ([1]; first compound 2 µM)	relative viability ([1]; first compound 6.325 µM)	relative viability ([2]; first compound 0.2 µM)	relative viability ([2]; first compound 0.6325 µM)	relative viability ([2]; first compound 2 µM)	relative viability ([2]; first compound 6.325 µM)	relative viability ([3]; first compound 0.2 µM)	relative viability ([3]; first compound 0.6325 µM)	relative viability ([3]; first compound 2 µM)	relative viability ([3]; first compound 6.325 µM)	relative viability (AZD6482 + Navitoclax; first compound 0.08 µM)	relative viability (AZD6482 + Navitoclax; first compound 0.253 µM)	relative viability (AZD6482 + Navitoclax; first compound 0.8 µM)	relative viability (AZD6482 + Navitoclax; first compound 2.53 µM)	relative viability (AZD6482 + Navitoclax; first compound 8 µM)
NCI-H460	0.834	0.72	0.659	0.603	0.922	0.952	1.03	0.993	0.484	0.449	0.431	0.389	0.968	1.08	1.07	0.859	0.694
NCI-H520	0.77	0.77	0.586	0.209	0.683	0.633	0.622	0.598	0.495	0.454	0.534	0.214	0.839	0.785	0.703	–	0.344
NCI-H596	0.623	0.717	0.591	0.57	0.847	0.902	0.78	0.76	1.13	0.934	0.958	1.03	0.596	0.827	0.925	0.912	0.836
NCI-H647	0.588	0.669	0.614	0.24	1.15	0.952	1.35	0.918	0.421	0.356	0.394	0.28	0.949	–	0.929	0.555	0.806
NCI-H727	1.27	1.14	1.15	1.07	0.771	1.04	0.889	0.832	0.756	1.02	0.865	0.726	0.469	0.455	0.421	–	0.235
NCI-H838	0.772	0.695	0.938	0.626	1.08	1.17	1.06	1.03	0.45	0.466	0.508	0.474	0.984	1.08	1.05	0.622	0.623
NCI-H1355	0.654	0.618	0.724	0.605	0.973	0.968	1.05	0.919	0.349	0.343	0.343	0.375	0.551	0.697	0.711	0.588	0.61
NCI-H1395	0.617	1.24	0.896	0.491	0.895	1	0.93	0.858	0.712	0.71	0.743	0.706	0.831	0.822	0.803	0.542	0.733
NCI-H1437	0.871	0.778	0.982	0.734	1.21	1.21	1.38	1.23	0.61	0.522	0.584	0.577	1.06	1.13	1.12	0.816	0.692
NCI-H1650	0.66	0.656	0.747	0.465	1.11	1.06	1.31	0.755	0.403	0.399	0.377	0.353	0.873	–	0.747	0.702	0.819
NCI-H1651	0.56	0.617	0.561	0.548	0.85	0.688	0.934	0.807	0.587	0.598	0.639	0.617	0.883	0.917	0.881	0.676	0.636
NCI-H1666	1.08	0.943	0.958	1.06	0.897	0.969	1.13	0.932	0.597	0.805	0.658	0.729	0.794	0.846	0.706	0.749	0.528
NCI-H1734	0.813	0.76	0.778	0.717	0.934	0.846	0.849	0.91	0.504	0.469	0.516	0.519	0.73	0.604	0.726	0.449	0.776
NCI-H1755	0.777	0.67	0.759	0.573	0.9	0.899	0.922	0.815	0.657	0.669	0.689	0.663	0.833	0.737	0.682	0.43	0.498
NCI-H1793	0.692	1.06	0.871	0.638	0.591	0.882	0.848	0.701	0.499	0.476	0.465	0.571	0.29	0.23	0.251	–	0.312
NCI-H1915	0.506	0.426	0.514	0.472	1.05	1.01	1.1	1.12	0.263	0.26	0.276	0.264	0.772	0.696	0.83	0.739	0.739
NCI-H1944	0.58	0.597	0.512	0.517	0.882	0.867	0.862	0.807	0.465	0.505	0.391	0.455	1.02	0.953	1.03	0.887	0.821
NCI-H1975	0.397	0.677	0.797	0.654	0.972	0.97	1	0.955	0.37	0.39	0.419	0.37	0.919	1.05	1.17	0.856	0.786

Cell Line	relative viability ([1]; first compound 0.2 µM)	relative viability ([1]; first compound 0.6325 µM)	relative viability ([1]; first compound 2 µM)	relative viability ([1]; first compound 6.325 µM)	relative viability ([2]; first compound 0.2 µM)	relative viability ([2]; first compound 0.6325 µM)	relative viability ([2]; first compound 2 µM)	relative viability ([2]; first compound 6.325 µM)	relative viability ([3]; first compound 0.2 µM)	relative viability ([3]; first compound 0.6325 µM)	relative viability ([3]; first compound 2 µM)	relative viability ([3]; first compound 6.325 µM)	relative viability (AZD6482 + Navitoclax; first compound 0.08 µM)	relative viability (AZD6482 + Navitoclax; first compound 0.253 µM)	relative viability (AZD6482 + Navitoclax; first compound 0.8 µM)	relative viability (AZD6482 + Navitoclax; first compound 2.53 µM)	relative viability (AZD6482 + Navitoclax; first compound 8 µM)
NCI-H1993	0.778	0.798	0.855	0.661	0.801	0.735	0.756	0.912	0.566	0.522	0.58	0.568	0.779	0.784	–	–	0.654
NCI-H2009	0.803	0.762	0.767	0.569	1.27	1.22	1.23	1.09	0.396	0.392	0.43	0.375	1.11	1.14	1.23	0.757	0.96
NCI-H2023	0.565	0.63	0.509	0.0993	0.943	0.834	0.834	0.455	0.226	0.218	0.25	0.114	0.891	0.999	0.803	0.615	0.621
NCI-H2085	0.799	0.954	0.802	0.724	0.917	0.926	0.965	0.944	0.53	0.531	0.594	0.559	0.803	0.585	0.538	0.395	0.462
NCI-H2087	0.806	0.618	0.521	0.611	1.12	0.99	1.31	1.25	0.318	0.261	0.219	0.212	0.847	0.909	0.966	0.818	0.895
NCI-H2126	0.8	0.802	0.688	0.69	1.09	1.15	1.16	1.09	0.577	0.55	0.561	0.567	0.744	0.671	0.727	0.571	0.543
NCI-H2170	0.858	0.765	0.86	0.755	0.982	0.955	0.996	1.01	0.487	0.454	0.49	0.46	0.502	0.558	0.594	0.444	0.476
NCI-H2347	0.712	0.725	0.51	0.504	0.791	0.834	1.02	1	0.586	0.617	0.615	0.606	–	0.423	0.445	0.283	0.235
NCI-H2405	1.01	0.989	1.02	0.976	1.05	1	1.06	1.07	0.706	0.745	0.784	0.729	0.488	–	0.778	0.489	0.509
NCI-H3122	1.04	1.04	0.921	0.937	0.915	1.02	0.955	0.968	0.398	0.451	0.461	0.363	0.96	1.01	1.07	0.894	0.97
PC-3 [JPC-3]	0.625	0.926	0.781	0.707	1.03	1.03	1.14	0.992	0.863	0.805	0.718	0.674	0.727	0.665	0.851	0.756	0.679
PC-14	0.674	0.674	0.625	0.0432	1.01	0.959	0.939	0.885	0.193	0.223	0.241	0.0753	0.926	1	1.04	0.879	0.96
RERF-LC-KJ	0.61	0.704	0.703	0.589	0.905	0.927	0.904	0.857	0.743	0.699	0.733	0.679	0.584	0.854	0.802	0.52	0.874
SK-LU-1	0.832	0.747	0.844	0.641	0.839	0.79	0.783	0.653	0.644	0.706	0.703	0.618	–	0.74	1.04	0.834	0.93
SK-MES-1	1.02	1.04	1.22	0.472	0.842	0.926	0.97	0.865	0.371	0.351	0.316	0.101	1.08	1.17	0.923	0.493	0.572
SW 1573	0.704	0.574	0.684	0.199	0.844	0.974	0.941	0.862	0.542	0.48	0.402	0.182	0.887	0.86	0.941	0.56	0.653
UMC-11	0.361	0.453	0.431	0.317	0.943	1.05	1.15	0.826	0.598	0.577	0.597	0.451	0.331	0.329	0.313	0.309	0.275
